# Assay results from patent publication US9085463B2, “Water-soluble functionalized fullerenes” (Marelle, LLC, priority 2011, dated 2015).
# Columns and labels:
# [1] = DPPH radical-scavenging method (anti-oxidant potential); type: biochemical; settings: for RD(.05 mg): amount of compound needed to deplete .05 mg of DPPH: calculated from slope; for Slope (anti-oxidant potential): mg DPPH remaining vs mg compound, linear regression, absorbance at 517 nm
# Source text: The ability of a component to serve as an anti-oxidant is readily tested by a variety of methods known in the art. These analytical methods measure the radical-scavenging activity of anti-oxidants against free radicals, such as the 1,1-diphenyl-2-picrylhydrazyl (DPPH) radical. […] This absorbance disappears as the DPPH is consumed upon reduction by an antiradical compound. The disappearance of this so-called absorbance band can be followed by spectroscopic methods allowing quantitative measurements of the compound's anti-oxidant ability.
# Stock solutions of 100 micromolar DPPH were prepared using 3.9 milligrams (mg) of DPPH dissolved in 100 milliliters (ml) of solution using spectroscopic grade methanol (MeOH). 3.5 ml of the DPPH solution was combined with 0.5 ml of test solutions of various concentrations of the anti-oxidant compounds. The commercial anti-oxidants, which are not water soluble, were dissolved in MeOH while their functionalized fullerene derivatives were dissolved in distilled water. The test mixture was immediately placed in a spectrometer which measured the absorbance of the mixture at 517 nm at various intervals over periods of 6 to 8 hours. Typically 4 or more samples of the anti-oxidants at various concentrations were tested. The concentrations, expressed in milligrams per milliliter (mg/ml), were selected so that some of the samples would consume more than 50% of the DPPH and others would not.
# The percent of DPPH remaining at a given time interval was calculated using the following equation:
# [formula] ACt is the absorbance value to the compound/DPPH solution at time t, ADPPHi is the initial value of the DPPH control blank at time t=0, and ADPPHt′ is the absorbance value of the control blank DPPH at time t=t′. The term (ADPPHt−ADPPHt′) in the above equation is the absorbance correction factor for DPPH radical decay as measured in the control blank.
# The % DPPHram was recorded for each of the four concentrations at two different reaction times (30 minutes and 300 minutes). The % DPPHram was converted to milligrams (mg) of DPPH remaining and plotted as a function of milligrams (mg) of compound for each of the two reaction times. Linear regressions were calculated for each of the data sets according to the following formula: CDPPH=mt·Cc+CDPPHo
# CDPPH is the mass of DPPH remaining at time t=30 minutes and time t=300 minutes, Co is the mass of the compound in the cuvette, CDPPHo is the initial concentration of the DPPH in the cuvette, and mt is the slope determined by the linear regression. The slope was used as a parameter to estimate the anti-oxidant potential of the compound. […] FIGS. 30-34 illustrate the slope (anti-oxidant potential) of commercial anti-oxidants and their functionalized fullerenol derivatives (indicated with FF in the legends).
# The slope for each compound was tabulated and the amount (mg) of compound needed to deplete 0.05 mg of DPPH was calculated (see Table 1).
# [2] = UV absorbing ability (UV/Vis absorbance of solutions); type: physicochemical; settings: 0.5 mg/ml, avobenzone in acetone, functionalized fullerene in distilled water
# Method: The ability of a component to absorb UV light is readily tested using spectroscopic instruments, such as a UV/Vis spectrophotometer.
# 5.0 milligrams (mg) of avobenzone, a UV light absorbing substance widely used in sunscreens, was dissolved in 10 milliliters (ml) of reagent grade acetone. […] UV absorbance (A) of the resulting solutions was measured at 290 nm, 320 nm, and 400 nm.
Structure (SMILES),RD(.05 mg): amount of compound needed to deplete .05 mg of DPPH ([1]; 30 minutes reaction time) [mg],Slope (anti-oxidant potential) ([1]; 30 minutes reaction time) [mg/mg],RD(.05 mg): amount of compound needed to deplete .05 mg of DPPH ([1]; 300 minutes reaction time) [mg],Slope (anti-oxidant potential) ([1]; 300 minutes reaction time) [mg/mg],Absorbance (A) 290 nm ([2]; 290 nm),Absorbance (A) 320 nm ([2]; 320 nm),Absorbance (A) 400 nm ([2]; 400 nm)
"COC1=C(OC)C(=O)C(C/C=C(\C)CC/C=C(\C)CC/C=C(\C)CC/C=C(\C)CC/C=C(\C)CC/C=C(\C)CC/C=C(\C)CC/C=C(\C)CC/C=C(\C)CCC=C(C)C)=C(C)C1=O [Coenzyme Q10, coenzyme Q10, reference compound]",125.00,-0.0004,23.81,-0.0021,–,–,–
"CCCCC/C=C\C/C=C\CCCCCCCC(=O)O [Linoleic Acid, linoleic acid, reference compound]",6250.00,-0.000008,100.00,-0.0005,–,–,–
"CCCCC/C=C\C/C=C\C/C=C\C/C=C\CCCC(=O)O [Arachidonic Acid, arachidonic acid, reference compound]",250.00,-0.0002,45.45,-0.0011,–,–,–
"COc1ccc(C(=O)CC(=O)c2ccc(C(C)(C)C)cc2)cc1 [Avobenzone, avobenzone]",–,–,–,–,0.297,0.521,0.376
"CC/C=C\C/C=C\C/C=C\CCCCCCCC(=O)O [Linolenic Acid, α-linolenic acid, reference compound]",250.00,-0.0002,45.45,-0.0011,–,–,–
